The source of these data is US11884661B2, “3-substituted propionic acids as αV integrin inhibitors” (BRISTOL-MYERS SQUIBB COMPANY, priority 2016, dated 2024).

Structures can show the parent of a compound that is named as a salt.

human αVβ3, sequence (P06756 31-992 limits assumed): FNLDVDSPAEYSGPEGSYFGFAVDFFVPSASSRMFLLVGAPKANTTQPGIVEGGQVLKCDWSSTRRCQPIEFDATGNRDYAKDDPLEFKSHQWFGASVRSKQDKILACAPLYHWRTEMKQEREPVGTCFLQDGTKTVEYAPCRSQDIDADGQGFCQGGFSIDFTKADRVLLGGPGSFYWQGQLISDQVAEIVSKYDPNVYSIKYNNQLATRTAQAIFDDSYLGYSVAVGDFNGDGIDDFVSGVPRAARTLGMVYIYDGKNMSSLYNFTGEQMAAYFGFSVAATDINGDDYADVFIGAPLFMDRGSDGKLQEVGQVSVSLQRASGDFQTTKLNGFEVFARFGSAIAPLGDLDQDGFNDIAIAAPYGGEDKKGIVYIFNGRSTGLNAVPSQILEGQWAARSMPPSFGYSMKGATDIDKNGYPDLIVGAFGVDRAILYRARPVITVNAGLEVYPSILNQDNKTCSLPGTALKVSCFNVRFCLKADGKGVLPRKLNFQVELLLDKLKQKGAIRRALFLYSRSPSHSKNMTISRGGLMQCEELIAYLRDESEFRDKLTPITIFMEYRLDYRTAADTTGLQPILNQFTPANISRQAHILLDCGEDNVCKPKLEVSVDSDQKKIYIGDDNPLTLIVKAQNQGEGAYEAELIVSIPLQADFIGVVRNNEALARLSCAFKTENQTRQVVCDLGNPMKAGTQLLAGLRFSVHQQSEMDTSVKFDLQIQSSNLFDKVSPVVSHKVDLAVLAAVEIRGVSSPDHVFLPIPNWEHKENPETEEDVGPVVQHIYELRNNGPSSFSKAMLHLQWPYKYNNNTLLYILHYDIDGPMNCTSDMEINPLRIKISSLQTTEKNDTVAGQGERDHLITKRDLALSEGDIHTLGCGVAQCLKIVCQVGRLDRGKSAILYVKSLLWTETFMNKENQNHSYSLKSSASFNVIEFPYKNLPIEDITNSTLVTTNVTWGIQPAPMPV
human αVβ3, sequence (P05106 27-718 limits assumed): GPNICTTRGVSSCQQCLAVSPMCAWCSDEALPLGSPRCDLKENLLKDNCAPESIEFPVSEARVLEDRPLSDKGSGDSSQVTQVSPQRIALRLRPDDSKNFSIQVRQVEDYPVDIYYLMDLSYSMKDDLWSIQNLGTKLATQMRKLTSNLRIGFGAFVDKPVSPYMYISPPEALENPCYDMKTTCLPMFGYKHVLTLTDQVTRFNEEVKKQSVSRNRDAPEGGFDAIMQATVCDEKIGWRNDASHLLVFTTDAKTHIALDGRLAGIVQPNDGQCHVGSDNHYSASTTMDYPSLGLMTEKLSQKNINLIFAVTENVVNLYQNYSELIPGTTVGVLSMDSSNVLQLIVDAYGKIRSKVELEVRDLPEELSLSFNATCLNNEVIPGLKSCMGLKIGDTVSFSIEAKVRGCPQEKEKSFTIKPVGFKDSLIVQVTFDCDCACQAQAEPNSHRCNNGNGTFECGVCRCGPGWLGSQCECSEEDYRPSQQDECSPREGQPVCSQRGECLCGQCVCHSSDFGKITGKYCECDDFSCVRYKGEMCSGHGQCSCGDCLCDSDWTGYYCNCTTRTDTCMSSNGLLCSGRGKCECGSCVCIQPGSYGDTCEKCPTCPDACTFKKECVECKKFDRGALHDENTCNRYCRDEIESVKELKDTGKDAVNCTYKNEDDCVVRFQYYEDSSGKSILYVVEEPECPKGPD

One test addresses human αVβ3 (Homo sapiens, UniProt P05106+P06756). The experiment in a line: human αVβ3 HTRF binding assay.
Settings: not given
Here is the method:
All binding assays used the HTRF (homogeneous time resolved fluorescence) technology from Cisbio International, therefore all assays are described as HTRF binding assays. The assay results for the Examples are listed above together with the characterization data. The HTRF binding assays are established for the following integrins: human αVβ6, human αVβ1, human αVβ3, human αVβ5, and human αVβ8. All assays used the following assay buffer: 20 mM Tris, pH 7.4, 1 mM MgCl2, 1 mM MnCl2, 0.01% Tween 20, and 0.01% BSA. Alternatively, a SPA-based assay was used for evaluation of receptor binding.
The following describes the components and a representative procedure for the human αVβ6 HTRF binding assay: Recombinant human αVβ6 Integrin (R & D systems, 3817-AV) was biotinylated. Biotinylated human αVβ6 Integrin was added to assay vessel at a final concentration of 1.25 nM. FITC-conjugated fibronectin (Cytoskeleton, FNR02) was then added at the final concentration of 5 nM. The mixture was centrifuged at 600 rpm for three minutes using Thermo Fisher Heraeus Multifuge X3 centrifuge and then incubated at RT for an hour. Streptavidin Terbium (Cisbio international 610STLB) was then added at the final concentration of 0.625 nM. The resulting mixture was centrifuged at 600 rpm for three minutes using Thermo Fisher Heraeus Multifuge X3 centrifuge and then incubated at room temperature overnight in dark before reading HTRF signals.
A general note: Time-resolved FRET reads energy transfer from a long-lived donor to a nearby acceptor.
`COc1cncc(C(CC(=O)O)n2ccc(CCCc3ccc4c(n3)NCCC4)n2)c1` (single isomer, unassigned) [Example 64, 3-(5-methoxypyridin-3-yl)-3-(3-(3-(5,6,7,8-tetrahydro-1,8-naphthyridin-2-yl)propyl)-1H-pyrazol-1-yl)propanoic acid] displayed an IC50 of 3.8 nM. On the same count and under the same terms, in the case of `Cn1cc([C@H](CC(=O)O)n2ccc(CCCc3ccc4c(n3)NCCC4)n2)ccc1=O` [Example 45, (S)-3-(1-Methyl-6-oxo-1,6-dihydropyridin-3-yl)-3-(3-(3-(5,6,7,8-tetrahydro-1,8-naphthyridin-2-yl)propyl)-1H-pyrazol-1-yl)propanoic acid ditrifluoroacetic acid salt] it was 1.6 nM.

The target of another test is human αVβ8 (Homo sapiens, UniProt P06756+P26012). The test can be described thus: human αVβ8 HTRF binding assay.
human αVβ8, sequence (P06756 31-992 limits assumed): as the sequence (P06756 31-992 limits assumed) above
human αVβ8, sequence (P26012 43-684 limits assumed): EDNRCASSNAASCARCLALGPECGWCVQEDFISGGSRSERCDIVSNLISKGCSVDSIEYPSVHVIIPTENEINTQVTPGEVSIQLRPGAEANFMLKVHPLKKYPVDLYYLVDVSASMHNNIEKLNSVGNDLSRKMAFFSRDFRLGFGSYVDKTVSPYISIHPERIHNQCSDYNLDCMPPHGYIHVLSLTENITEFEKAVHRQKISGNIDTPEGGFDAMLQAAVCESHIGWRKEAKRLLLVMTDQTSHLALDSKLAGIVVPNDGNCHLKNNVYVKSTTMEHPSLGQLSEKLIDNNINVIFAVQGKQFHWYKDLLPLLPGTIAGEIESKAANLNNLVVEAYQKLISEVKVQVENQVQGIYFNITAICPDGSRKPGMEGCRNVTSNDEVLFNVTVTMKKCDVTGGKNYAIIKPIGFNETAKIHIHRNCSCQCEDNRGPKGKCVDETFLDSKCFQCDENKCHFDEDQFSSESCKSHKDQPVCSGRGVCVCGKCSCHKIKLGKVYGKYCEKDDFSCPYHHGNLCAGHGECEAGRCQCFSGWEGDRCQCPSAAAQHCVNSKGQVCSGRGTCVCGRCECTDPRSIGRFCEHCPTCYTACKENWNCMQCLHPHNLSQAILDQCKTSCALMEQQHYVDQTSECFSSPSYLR
Settings: not given
Here is the method: All binding assays used the HTRF (homogeneous time resolved fluorescence) technology from Cisbio International, therefore all assays are described as HTRF binding assays. The assay results for the Examples are listed above together with the characterization data. The HTRF binding assays are established for the following integrins: human αVβ6, human αVβ1, human αVβ3, human αVβ5, and human αVβ8. All assays used the following assay buffer: 20 mM Tris, pH 7.4, 1 mM MgCl2, 1 mM MnCl2, 0.01% Tween 20, and 0.01% BSA. Alternatively, a SPA-based assay was used for evaluation of receptor binding. […]
The compound `COc1cncc(C(CC(=O)O)n2ccc(CCCc3ccc4c(n3)NCCC4)n2)c1` (single isomer, unassigned) [Example 64, 3-(5-methoxypyridin-3-yl)-3-(3-(3-(5,6,7,8-tetrahydro-1,8-naphthyridin-2-yl)propyl)-1H-pyrazol-1-yl)propanoic acid] had an IC50 of 110 nM. For the compound `Cn1cc([C@H](CC(=O)O)n2ccc(CCCc3ccc4c(n3)NCCC4)n2)ccc1=O` [Example 45, (S)-3-(1-Methyl-6-oxo-1,6-dihydropyridin-3-yl)-3-(3-(3-(5,6,7,8-tetrahydro-1,8-naphthyridin-2-yl)propyl)-1H-pyrazol-1-yl)propanoic acid ditrifluoroacetic acid salt], the half-inhibitory concentration (IC50) worked out at 3020 nM.

In the next test the target is T1, human αVβ6 (Homo sapiens, UniProt P06756+P18564).
T1 construct: purchased R & D systems 3817-AV
T1 sequence (P06756 31-992 limits assumed): as the sequence (P06756 31-992 limits assumed) above
T1 sequence (P18564 22-707 limits assumed): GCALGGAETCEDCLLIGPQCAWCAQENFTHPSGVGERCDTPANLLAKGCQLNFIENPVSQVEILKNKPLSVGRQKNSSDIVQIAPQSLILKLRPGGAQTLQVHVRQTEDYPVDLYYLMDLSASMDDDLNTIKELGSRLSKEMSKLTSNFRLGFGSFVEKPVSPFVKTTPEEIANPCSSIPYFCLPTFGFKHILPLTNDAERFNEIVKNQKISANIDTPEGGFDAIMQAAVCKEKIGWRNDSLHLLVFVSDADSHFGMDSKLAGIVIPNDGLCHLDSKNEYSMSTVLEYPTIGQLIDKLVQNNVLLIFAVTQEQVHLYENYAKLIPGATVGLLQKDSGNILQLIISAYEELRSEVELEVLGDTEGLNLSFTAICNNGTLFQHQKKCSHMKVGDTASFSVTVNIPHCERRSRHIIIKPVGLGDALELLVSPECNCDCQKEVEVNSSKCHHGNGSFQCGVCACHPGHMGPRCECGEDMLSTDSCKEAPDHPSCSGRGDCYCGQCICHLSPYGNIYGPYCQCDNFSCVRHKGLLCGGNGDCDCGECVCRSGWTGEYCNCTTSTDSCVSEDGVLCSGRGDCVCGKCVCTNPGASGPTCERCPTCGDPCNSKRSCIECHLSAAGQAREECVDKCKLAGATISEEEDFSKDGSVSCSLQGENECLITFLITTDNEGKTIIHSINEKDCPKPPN
The test can be described thus: human αVβ6 HTRF binding assay. The settings on record: recombinant human αVβ6 integrin, FITC-conjugated fibronectin. The gist of the method:
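Biotinylated recombinant αVβ6 (1.25 nM final) incubated with FITC-fibronectin (5 nM) 1 h at RT, then streptavidin-terbium (0.625 nM) added and incubated overnight at RT in the dark before HTRF read. Buffer: 20 mM Tris pH 7.4, 1 mM MgCl2, 1 mM MnCl2, 0.01% Tween 20, 0.01% BSA.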
Turning to `COc1cncc(C(CC(=O)O)n2ccc(CCCc3ccc4c(n3)NCCC4)n2)c1` (single isomer, unassigned) [Example 64, 3-(5-methoxypyridin-3-yl)-3-(3-(3-(5,6,7,8-tetrahydro-1,8-naphthyridin-2-yl)propyl)-1H-pyrazol-1-yl)propanoic acid], the IC50 stood at 19 nM. On to `Cn1cc([C@H](CC(=O)O)n2ccc(CCCc3ccc4c(n3)NCCC4)n2)ccc1=O` [Example 45, (S)-3-(1-Methyl-6-oxo-1,6-dihydropyridin-3-yl)-3-(3-(3-(5,6,7,8-tetrahydro-1,8-naphthyridin-2-yl)propyl)-1H-pyrazol-1-yl)propanoic acid ditrifluoroacetic acid salt], for which the IC50 was 1.6 nM. Still for that read-out and setting: in the case of `COCCOc1cncc(C(CC(=O)O)n2ccc(CCCc3ccc4c(n3)NCCC4)n2)c1` (single isomer, unassigned) [Example 80, 3-(5-(2-methoxyethoxy)pyridin-3-yl)-3-(3-(3-(5,6,7,8-tetrahydro-1,8-naphthyridin-2-yl)propyl)-1H-pyrazol-1-yl)propanoic acid] it was 1.8 nM; in that of `COc1ccc(C(CC(=O)O)n2ccc(CCCc3ccc4c(n3)NCCCC4)n2)cn1` (single isomer, unassigned) [Example 101, 3-(6-methoxypyridin-3-yl)-3-(3-(3-(6,7,8,9-tetrahydro-5H-pyrido[2,3-b]azepin-2-yl)propyl)-1H-pyrazol-1-yl)propanoic acid], 4.3 nM; in that of `Cc1ncc([C@H](CC(=O)O)n2ccc(CCC[C@H]3CCc4cccnc4N3)n2)cn1` [Example 86, (S)-3-(2-methylpyrimidin-5-yl)-3-(3-(3-((S)-1,2,3,4-tetrahydro-1,8-naphthyridin-2-yl)propyl)-1H-pyrazol-1-yl)propanoic acid], 270 nM. Same read-out and setting: in the case of `COc1cncc(C(CC(=O)O)n2ccc(CCCc3ccc4c(n3)NCCCC4)n2)c1` (racemic) [Example 107, (±)-3-(5-methoxypyridin-3-yl)-3-(3-(3-(6,7,8,9-tetrahydro-5H-pyrido[2,3-b]azepin-2-yl)propyl)-1H-pyrazol-1-yl)propanoic acid] it was 4.9 nM; in that of `COc1ccc(C(CC(=O)O)c2csc(CCCc3ccc4c(n3)NCCC4)n2)cc1F` (stereo not drawn) [Example 153, 3-(3-fluoro-4-methoxyphenyl)-3-(2-(3-(5,6,7,8-tetrahydro-1,8-naphthyridin-2-yl)propyl)thiazol-4-yl)propanoic acid], 54 nM; in that of `O=C(O)CCCNc1cc(C(CC(=O)O)n2ccc(CCCc3ccc4c(n3)NCCC4)n2)ccn1` (racemic) [Example 76, (±)-4-{[4-(2-carboxy-1-{3-[3-(5,6,7,8-tetrahydro-1,8-naphthyridin-2-yl)propyl]-1H-pyrazol-1-yl}ethyl)pyridin-2-yl]amino}butanoic acid], 55 nM. The same measure, in the same setting: in the case of `COc1ccc(C(CC(=O)O)c2nc(CCCCc3ccc4c(n3)NCCC4)c(C)o2)cc1F` (stereo not drawn) [Example 181, 3-(3-fluoro-4-methoxyphenyl)-3-(5-methyl-4-(4-(5,6,7,8-tetrahydro-1,8-naphthyridin-2-yl)butyl)oxazol-2-yl)propanoic acid] it was 1060 nM; in that of `COc1ccc(C(CC(=O)O)c2csc(CCCc3ccc4c(n3)NCCC4)n2)cc1F` (single isomer, unassigned) [Example 152, 3-(3-fluoro-4-methoxyphenyl)-3-(2-(3-(5,6,7,8-tetrahydro-1,8-naphthyridin-2-yl)propyl)thiazol-4-yl)propanoic acid], 180 nM; in that of `CN(C)C(=O)c1ccc(C(CC(=O)O)c2nc(CCCCc3ccc4c(n3)NCCC4)cs2)cc1` (single isomer, unassigned) [Example 127, 3-(4-(dimethylcarbamoyl)phenyl)-3-(4-(4-(5,6,7,8-tetrahydro-1,8-naphthyridin-2-yl)butyl)thiazol-2-yl)propanoic acid], 60 nM. Consider `COc1ncc(C(CC(=O)O)n2nccc2CCCc2ccc3c(n2)NCCC3)cc1F` (racemic) [Example 77, (±)-3-(5-fluoro-6-methoxypyridin-3-yl)-3-{5-[3-(5,6,7,8-tetrahydro-1,8-naphthyridin-2-yl)propyl]-1H-pyrazol-1-yl}propanoic acid], for which the IC50 came to 18 nM. Still for that read-out and setting: in the case of `O=C(O)CC(c1cnc2ccccc2c1)n1ncc(CCCc2ccc3c(n2)NCCC3)n1` (single isomer, unassigned) [Example 174, 3-(quinolin-3-yl)-3-(4-(3-(5,6,7,8-tetrahydro-1,8-naphthyridin-2-yl)propyl)-2H-1,2,3-triazol-2-yl)propanoic acid] it was 170 nM; in that of `O=C(O)CC(c1ccc2nccnc2c1)c1nc(CCCCc2ccc3c(n2)NCCC3)cs1` (single isomer, unassigned) [Example 120, 3-(quinoxalin-6-yl)-3-(4-(4-(5,6,7,8-tetrahydro-1,8-naphthyridin-2-yl)butyl)thiazol-2-yl)propanoic acid], 14 nM; in that of `CCOc1ncc(C(CC(=O)O)c2nc(CCCCc3ccc4c(n3)NCCC4)cs2)cn1` (single isomer, unassigned) [Example 130, 3-(2-ethoxypyrimidin-5-yl)-3-(4-(4-(5,6,7,8-tetrahydro-1,8-naphthyridin-2-yl)butyl)thiazol-2-yl)propanoic acid], 2.9 nM. `CN(C)C(=O)c1cccc(C(CC(=O)O)c2nc(CCCc3ccc4c(n3)NCCC4)cs2)c1` (single isomer, unassigned) [Example 139, 3-(3-(dimethylcarbamoyl)phenyl)-3-(4-(3-(5,6,7,8-tetrahydro-1,8-naphthyridin-2-yl)propyl)thiazol-2-yl)propanoic acid]: the IC50 came to 34 nM. On the same count and under the same terms, in the case of `CCCCOC(=O)NC(Cc1cnn(CCc2ccc3c(n2)NCCC3)c1)C(=O)O` (racemic) [Example 23, (±)-2-((Butoxycarbonyl)amino)-3-(1-(2-(5,6,7,8-tetrahydro-1,8-naphthyridin-2-yl)ethyl)-1H-pyrazol-4-yl)propanoic acid] it was 1020 nM.

As for `Cc1ncc(C(CC(=O)O)n2ccc(CCCc3ccc4c(n3)NCCCC4)n2)cn1` (racemic) [Example 96, (±)-3-(2-methylpyrimidin-5-yl)-3-(3-(3-(6,7,8,9-tetrahydro-5H-pyrido[2,3-b]azepin-2-yl)propyl)-1H-pyrazol-1-yl)propanoic acid], the IC50 turned out to be 17 nM. `COc1ccc(C(CC(=O)O)n2ncc(CCCc3ccc4c(n3)NCCC4)n2)cc1F` (single isomer, unassigned) [Example 172, 3-(3-fluoro-4-methoxyphenyl)-3-(4-(3-(5,6,7,8-tetrahydro-1,8-naphthyridin-2-yl)propyl)-2H-1,2,3-triazol-2-yl)propanoic acid]: the IC50 was determined as 53 nM. In the case of `COc1ccc(C(CC(=O)O)c2cc(CCCc3ccc4c(n3)NCCC4)[nH]n2)cc1F` (stereo not drawn) [Example 116, 3-(3-Fluoro-4-methoxyphenyl)-3-(5-(3-(5,6,7,8-tetrahydro-1,8-naphthyridin-2-yl)propyl)-1H-pyrazol-3-yl)propanoic acid], the IC50 was 47 nM. For the compound `Cc1cc(C)n(C(CC(=O)O)c2nc(CCCc3ccc4c(n3)NCCC4)cs2)n1` (single isomer, unassigned) [Example 162, 3-(3,5-dimethyl-1H-pyrazol-1-yl)-3-(4-(3-(5,6,7,8-tetrahydro-1,8-naphthyridin-2-yl)propyl)thiazol-2-yl)propanoic acid], the IC50 amounted to 71 nM. Still for that read-out and setting: in the case of `Cc1cncc(C(CC(=O)O)c2nc(CCCc3ccc4c(n3)NCCC4)cs2)c1` (single isomer, unassigned) [Example 151, 3-(5-methylpyridin-3-yl)-3-(4-(3-(5,6,7,8-tetrahydro-1,8-naphthyridin-2-yl)propyl)thiazol-2-yl)propanoic acid] it was 2.6 nM; in that of `COc1ccc(C(CC(=O)O)n2ccc(CCCc3ccc4c(n3)NCCC4)n2)nn1` (racemic) [Example 57, (±)-3-(6-Methoxypyridazin-3-yl)-3-(3-(3-(5,6,7,8-tetrahydro-1,8-naphthyridin-2-yl)propyl)-1H-pyrazol-1-yl)propanoic acid], 51 nM.

The term IC50 denotes the concentration that inhibits the measured activity by half.
